The record followed here is ChEMBL document CHEMBL4390708, “Design, synthesis, in-silico studies and biological screening of quinazolinone analogues as potential antibacterial agents against MRSA” (2019).

The structures appear in SMILES notation. ≈ marks a conversion by molar mass, not a printed value.

Common to all, as to format: functional
Assay [1] concerns Staphylococcus aureus. Put plainly: Antibacterial activity against Staphylococcus aureus assessed as reduction in bacterial cell viability incubated for 20 to 24 hrs by REMA method.
The next assay concerns Escherichia coli. Briefly: Antibacterial activity against Escherichia coli assessed as reduction in bacterial cell viability incubated for 20 to 24 hrs by REMA method.
Assay [2] has as its system Staphylococcus aureus. Briefly: Antibacterial activity against methicillin-resistant Staphylococcus aureus assessed as reduction in bacterial cell viability incubated for 20 to 24 hrs by REMA method.

Usually MIC stands for the smallest concentration in the dilution series that meets the test's criterion for growth inhibition. Consider `O=C(Nc1cccc(-n2c(/C=C/c3ccc(F)cc3)nc3ccccc3c2=O)c1)c1cccs1`, for which the figures for the MIC with Staphylococcus aureus [1], in the assay with Escherichia coli and in the assay on Staphylococcus aureus [2] were 31.2 µg/mL (≈ 66.8 µM), 62.5 µg/mL (≈ 134 µM) and 31.2 µg/mL (≈ 66.8 µM), respectively.

In the case of `Cc1ccccc1C(=O)Nc1cccc(-n2c(/C=C/c3ccc(C#N)cc3)nc3ccccc3c2=O)c1`, the MIC with Staphylococcus aureus [1], in the assay with Escherichia coli and in the assay with Staphylococcus aureus [2] was 62.5 µg/mL (≈ 130 µM) each time.

As to `COc1ccc(C(=O)Nc2cccc(-n3c(/C=C/c4ccc(F)cc4)nc4ccccc4c3=O)c2)cc1OC`, the minimum inhibitory concentration (MIC) with Staphylococcus aureus [1], in the assay with Escherichia coli and with Staphylococcus aureus [2] was 62.5 µg/mL (≈ 120 µM) in each case.

Take `O=C(Nc1cccc(-n2c(/C=C/c3ccc(F)cc3)nc3ccccc3c2=O)c1)c1ccccc1`: the MIC with Staphylococcus aureus [1] worked out at 125 µg/mL (≈ 271 µM); in the assay with Escherichia coli it was 62.5 µg/mL (≈ 135 µM); in the assay with Staphylococcus aureus [2], 62.5 µg/mL (≈ 135 µM).

With `COc1ccc(CC(=O)Nc2cccc(-n3c(/C=C/c4ccc(Cl)cc4)nc4ccccc4c3=O)c2)cc1`, the MIC with Staphylococcus aureus [1] is 15.6 µg/mL (≈ 29.9 µM); in the assay on Escherichia coli, 62.5 µg/mL (≈ 120 µM); in the assay with Staphylococcus aureus [2] it was 31.2 µg/mL (≈ 59.9 µM).

With `N#Cc1ccc(/C=C/c2nc3ccccc3c(=O)n2-c2cccc(NC(=O)c3ccccc3)c2)cc1`, the MIC in the assay with Staphylococcus aureus [1], with Escherichia coli and with Staphylococcus aureus [2] was 62.5 µg/mL (≈ 133 µM) each time.

Turning to `Cc1ccccc1C(=O)Nc1cccc(-n2c(/C=C/c3ccc(F)cc3)nc3ccccc3c2=O)c1`, the MIC in the assay with Staphylococcus aureus [1] is 125 µg/mL (≈ 263 µM); in the assay on Escherichia coli, 62.5 µg/mL (≈ 131 µM); with Staphylococcus aureus [2], 62.5 µg/mL (≈ 131 µM).

For the molecule `COc1ccc(CC(=O)Nc2cccc(-n3c(/C=C/c4ccc(F)cc4)nc4ccccc4c3=O)c2)cc1`, the MIC in the assay with Staphylococcus aureus [1], in the assay on Escherichia coli and with Staphylococcus aureus [2] was 62.5 µg/mL (≈ 124 µM) throughout.

For `N#Cc1ccc(/C=C/c2nc3ccccc3c(=O)n2-c2cccc(NC(=O)c3cccs3)c2)cc1`, the MIC in the assay with Staphylococcus aureus [1], in the assay with Escherichia coli and in the assay with Staphylococcus aureus [2] was 62.5 µg/mL (≈ 132 µM) throughout.

Consider `COc1ccc(C(=O)Nc2cccc(-n3c(/C=C/c4ccc(Cl)cc4)nc4ccccc4c3=O)c2)cc1OC`, for which the MIC with Staphylococcus aureus [1], in the assay with Escherichia coli and in the assay with Staphylococcus aureus [2] was 62.5 µg/mL (≈ 116 µM) throughout.

Turning to `NC[C@H]1O[C@H](O[C@H]2[C@H](O)[C@@H](O[C@H]3O[C@H](CO)[C@@H](O)[C@H](N)[C@H]3O)[C@H](N)C[C@@H]2N)[C@H](O)[C@@H](O)[C@@H]1O` [KANAMYCIN], the minimum inhibitory concentration (MIC) with Staphylococcus aureus [1] and in the assay on Escherichia coli was 7.8 µg/mL (≈ 16.1 µM) throughout.

In the case of `CC(=O)NC[C@H]1CN(c2ccc(N3CCOCC3)c(F)c2)C(=O)O1` [LINEZOLID], the MIC with Staphylococcus aureus [2] stood at 7.8 µg/mL (≈ 23.1 µM).

Regarding `CN[C@@H]1[C@H](O[C@H]2[C@H](O[C@H]3[C@H](O)[C@@H](O)[C@H](N=C(N)N)[C@@H](O)[C@@H]3N=C(N)N)O[C@@H](C)[C@]2(O)C=O)O[C@@H](CO)[C@H](O)[C@H]1O` [STREPTOMYCIN], the MIC in the assay on Staphylococcus aureus [1] and with Escherichia coli was 7.8 µg/mL (≈ 13.4 µM) in each case.
